Data on 2 compounds can be found in paper PMC7035640 (Parasites & Vectors, 2020).

Like-named read-outs stand apart in the source and are kept apart here.

For data set [1], the system named is intracellular amastigotes of L. donovani. Kind of data set: Transmission electron microscopy of intracellular amastigotes in RAW 264.7 macrophages. In kind it is cell-based, Leishmania donovani. The conditions noted are these: 48 h, DHCsA-d 5 μM; for Ultrastructure of intracellular amastigotes (mitochondria): CsA 10 μM, SSG 9 μM. From the text: (§1) Next, the cells were dehydrated in acetone and embedded in epoxy resin. Stained with lead citrate and observed under a Hitachi HT7700 transmission electron microscope.

Data set [2] has as its system L. donovani promastigotes. Put plainly: Transmission electron microscopy of promastigotes. In kind it is cell-based, Leishmania donovani. The conditions noted are these: 48 h; CsA 16 μM, DHCsA-d 12 μM, SSG 20 μM.
From the text: as §1

Data set [3] relates to intracellular amastigotes of Leishmania donovani. Kind of data set: Intracellular amastigote inhibition in infected RAW 264.7 macrophages, Wright's stain and microscopy. The conditions noted are these: for Number of intracellular amastigotes compared to untreated (Wright's staining): CsA 10 μM, DHCsA-d 5 μM, SSG 9 μM; for IC50: intracellular amastigotes in RAW 264.7, mean ± SD. In kind it is cell-based. The protocol:
(§2) Leishmania donovani strain MHOM/CN/IN/80/DD8 was used in this study. Leishmania promastigotes in the logarithmic phase were cultured at 28 °C in M199 medium at pH 7.4 (Sigma-Aldrich, Saint Louis, MO, USA), supplemented with 10% fetal bovine serum (Hyclone, Logan, UT, USA) and antibiotics (Pen-Strep, 100 U/ml penicillin-100 […] streptomycin sulphate).
(§3) RAW 264.7 cells (5.0 × 10^5 cells/per well) were plated on round glass coverslips in 24-well plates and allowed to adhere to the slides for 24 h at 37 °C, 5% CO2, in PRMI 1640 medium (Gibco, Franklin, TN, USA) supplemented with 10% FBS (Gibco). Adherent macrophages were infected with L. donovani promastigotes, at a macrophages-to-parasite ratio of 1:20 for 6 h at 37 °C, 5% CO2. Next, the non-infected parasites were removed by washing three times with PBS, and the infected macrophages were incubated in 37 °C in 5% CO2 with PRMI 1640 medium and 10% FBS without drugs for 24 h. […] At 24 and 48 h, the glass coverslips were fixed in methanol (Solarbio, Beijing, China) and stained with Wright’s stain (Solarbio). The numbers of parasites were determined using light microscopy by counting at least 200 cells per slide. The results are expressed as means of three independent experiments. The 50% inhibitory concentration (IC50) was calculated for promastigotes and intracellular amastigotes by fitting the values to a non-linear curve analysis.
(§4) All experiments were carried out in triplicates and repeated at least three times and the figures shown are representative of these experiments. IC50 were calculated according to a nonlinear regression using a log inhibitor-versus response equation with 95% confidence intervals in the GraphPad Prism 6.0 software. The data were analyzed using Student’s t-test for comparison of two groups and data values were expressed as the mean ± standard deviation (SD). Significant differences were determined and designated with asterisks as follows: *P < 0.05; **P < 0.01; ***P < 0.001 and ****P < 0.0001.

Data set [4] has as its system L. donovani cyclophilin A (LdCyPA). Kind of data set: Western blotting of LdCyPA expression in intracellular amastigotes. In kind it is cell-based, Leishmania donovani. The conditions noted are these: 48 h; CsA 10 μM, DHCsA-d 5 μM, SSG 9 μM; normalized to α-tubulin. The protocol: (§5) Polyclonal antibodies against LdCyPA were obtained to monitor protein expression. Representative peptides of LdCyPA were analyzed through two predictors for B cells, BEPIPRED and BCPRED12. […] Polyclonal antiserum was produced in New Zealand white rabbits. The rabbits were immunized with Freund’s adjuvant (Sigma-Aldrich), containing 1500 μg of LdCyPA peptide, on days 0, 15 and 30. The rabbits received three subcutaneous injections, the first in complete Freund’s adjuvant and later two in incomplete Freund’s adjuvant. Serum was obtained and antibody titers were estimated by ELISA on 25 and 42 days after the last injection.
(§6) These cells were then lysed with a protein lysis buffer supplemented with protease and phosphatase inhibitors and the protein concentration was determined by the BCA Kit (Beyotime). The extracted proteins were denatured for 5 min at 100 °C after adding appropriate amounts of loading buffer. Approximately 40 to 50 μg of proteins was loaded in each lane of a 12% polyacrylamide gel (Beyotime). […] The PVDF membranes were visualized with an enhanced chemiluminescence western blotting detection kit (Beyotime) and the protein bands were analyzed by densitometric studies using ImageJ software.

The test system of data set [5] is L. donovani promastigotes. Put plainly: Promastigote inhibition, flow cytometry (annexin V-FITC/PI). In kind it is cell-based, Leishmania donovani. The following applies: mean ± SD of three independent experiments. Here is the method: as §2
Inhibition rate (%) was calculated as follows: Inhibition rate (%) = 100% − [(No. of live parasites in treated sample/No. of live parasites in untreated control) × 100%].
as §3, with “experiments.” for “experiments. The 50% inhibitory concentration (IC50) was calculated for promastigotes and intracellular amastigotes by fitting the values to a non-linear curve analysis.”
as §4

The next data set concerns cyclophilin A (CyPA). Put plainly: Western blotting of CyPA expression in RAW 264.7 cells. In kind it is cell-based, mouse. The conditions noted are these: 48 h; CsA 10 μM, DHCsA-d 5 μM, SSG 9 μM; normalized to α-tubulin. Here is the method: These cells were then lysed with a protein lysis buffer supplemented with protease and phosphatase inhibitors and the protein concentration was determined by the BCA Kit (Beyotime). The extracted proteins were denatured for 5 min at 100 °C after adding appropriate amounts of loading buffer. Approximately 40 to 50 μg of proteins was loaded in each lane of a 12% polyacrylamide gel (Beyotime). Proteins were separated at 120 V until the dye front reached the bottom of the gel, followed by transfer of the gels to polyvinylidene fluoride (PVDF) membranes (EMD, MA, USA) in transfer buffer (25 mM Tris-HCl, 192 mM glycine, 20% methanol, 0.02% SDS, pH 8.3) and run at 200 mA for 60 min. The membranes were then soaked in a blocking buffer (1 × PBS, 0.1% Tween 20) and supplemented with 1% bovine serum albumin (Sigma-Aldrich) for 2 h, before incubating overnight at 4 °C individually with LdCyPA polyclonal antibody, CyPA antibody (Affinity, Dublin, OH, USA) and α-tubulin antibody (Affinity) at appropriate dilutions. All the primary antibodies were used at a 1:4000 dilution and horseradish peroxidase-conjugated anti-rabbit immunoglobulin secondary antibodies (Affinity) were used at a 1:5000 dilution. The PVDF membranes were visualized with an enhanced chemiluminescence western blotting detection kit (Beyotime) and the protein bands were analyzed by densitometric studies using ImageJ software.

Data set [6] concerns L. donovani infected macrophages (RAW 264.7). Put plainly: Cytokine quantification by ELISA in supernatants of L. donovani-infected RAW 264.7 macrophages. In kind it is cell-based, mouse. The conditions noted are these: 24 h, 48 h and 72 h; CsA 10 μM, DHCsA-d 5 μM, SSG 9 μM. Here is the method: (§7) Mouse RAW 264.7 macrophages (5.0 × 10^5 cells/per well), adhered for 24 h at 37 °C, 5% CO2, in PRMI 1640 medium supplemented with 10% FBS were infected with promastigotes at a macrophages-to-parasite ratio of 1:20 for 6 h at 37 °C, 5% CO2, and subsequently the non-infected parasites were removed by washing three times with PBS. Infected macrophages were incubated in PRMI 1640 medium and 10% FBS at 37 °C, 5% CO2, without drugs for 24 h. […] The cells were further incubated for 3 days, and the medium supernatants were retrieved at 24, 48 and 72 h. Subsequently, the cytokines IL-12, IL-10, IL-4, IFN-γ and TNF-α were measured utilizing the BD OpitELA ELISA Kit (BD). NO and H2O2 concentrations in the supernatants were detected by nitric oxide and hydrogen peroxide assay kits (Beyotime), respectively.

Data set [7] concerns L. donovani cyclophilin A (LdCyPA). Put plainly: Western blotting of LdCyPA expression in promastigotes. The conditions noted are these: 48 h; CsA 16 μM, DHCsA-d 12 μM, SSG 20 μM; normalized to α-tubulin. In kind it is cell-based, Leishmania donovani. Here is the method:
as §5, §6

The test system of data set [8] is murine macrophages (RAW 264.7). Put plainly: Cytotoxicity assessment, Cell Counting Kit-8. In kind it is cell-based, mouse. Here is the method:
Murine macrophages were cultivated in a 96-well plate using PRIM 1640 medium containing 10% FBS and maintained at 37 °C, 5% CO2, for 24 h. […] The cytotoxicity was measured at 24 and 48 h following a standard protocol.

Data set [9] deals with L. donovani infected macrophages (RAW 264.7). Put plainly: NO and H2O2 quantification in supernatants of L. donovani-infected RAW 264.7 macrophages. In kind it is cell-based, mouse. The following applies: 24 h, 48 h and 72 h; CsA 10 μM, DHCsA-d 5 μM, SSG 9 μM. Here is the method:
as §7

Setting [10] is: 24 h, mean ± SD, read-out: Cytotoxicity (RAW 264.7) CC50.
[11] abbreviates: 48 h, mean ± SD, read-out: Cytotoxicity (RAW 264.7) CC50.

As to `CCCC[C@@H](C)[C@@H](O)[C@H]1C(=O)N[C@@H](CC)C(=O)N(C)CC(=O)N(C)[C@@H](CC(C)C)C(=O)N[C@@H](C(C)C)C(=O)N(C)[C@@H](CC(C)C)C(=O)N[C@@H](C)C(=O)N[C@H](C)C(=O)N(C)[C@@H](CC(C)C)C(=O)N(C)[C@@H](CC(C)C)C(=O)N(C)[C@@H](C(C)C)C(=O)N1C` [DHCsA-d, dihydrocyclosporin A], in [1], the “Ultrastructure of intracellular amastigotes (mitochondria)” value is “disintegrated” and the “Share of intracellular amastigotes degraded in parasitophorous vacuoles” value is “Almost half”. For the same compound, the “Ultrastructure of promastigote mitochondria” value in data set [2] is given as “completely disorganized”. Also, in data set [3] (24 h), the “Number of intracellular amastigotes compared to untreated (Wright's staining)” value is “reduced” and the half-maximal inhibitory concentration (IC50) is 5.23 ± 2.1 µM. In data set [3] (48 h), the “Number of intracellular amastigotes compared to untreated (Wright's staining)” value was “basically absent” and the IC50 was 4.84 ± 0.4 µM. Moreover, in [4], the “Expression of LdCyPA in intracellular amastigotes vs untreated” value was “no significant changes”. In data set [5] (24 h), the 50% inhibitory concentration (IC50) is 21.2 ± 1.2 µM. The compound also gave an IC50 in [5] (48 h) of 12.1 ± 1.1 µM. The “Expression of CyPA in RAW 264.7 cells vs untreated” value in the data set with cyclophilin A (CyPA) is reported as “no significant changes”. In [6], the “IFN-γ level vs untreated infected cells” value is recorded as “significant increases”, the “IL-4 level vs untreated infected cells” value is reported as “significantly decreased”, the “IL-10 level vs untreated infected cells” value was “significantly decreased” and the “IL-12 level vs untreated infected cells” value is given as “significant increases”. Further, in data set [6], the “TNF-α level vs untreated infected cells” value is given as “significant increases”. In data set [7], the “Expression of LdCyPA in promastigotes vs untreated” value is “no significant changes”. The CC50 in data set [8] (setting [10]) was found to be 7.98 ± 0.4 µM. Also, the CC50 in [8] (setting [11]) was 6.65 ± 0.7 µM. For the same compound, in data set [9], the “H2O2 production vs untreated infected cells” value was “significantly decreased” and the “NO production vs untreated infected cells” value is “significantly decreased”.

For `O.O.O.O.O.O.O.O.O.O=C([O-])[C@@H]1[O][Sb](=[O])([O][Sb]2(=[O])[O][C@H]([C@H](O)CO)[C@H](O)[C@H](C(=O)[O-])[O]2)[O][C@H]([C@H](O)CO)[C@@H]1O.[Na+].[Na+].[Na+]` (stereo partly drawn) [SSG, Sodium stibogluconate], in data set [1], the “Ultrastructure of intracellular amastigotes (mitochondria)” value is reported as “disintegrated”. The “Ultrastructure of promastigote mitochondria” value in data set [2] is reported as “completely disorganized”. In data set [3] (24 h), the “Number of intracellular amastigotes compared to untreated (Wright's staining)” value is recorded as “reduced” and the IC50 came to 9.51 ± 0.5 µM. Besides, in [3] (48 h), the “Number of intracellular amastigotes compared to untreated (Wright's staining)” value is reported as “basically absent” and the IC50 turned out to be 8.27 ± 0.1 µM. The “Expression of LdCyPA in intracellular amastigotes vs untreated” value in data set [4] is listed as “no significant changes”. Moreover, the IC50 in data set [5] (24 h) is 32.3 ± 1.6 µM. The compound further had an IC50 in data set [5] (48 h) of 20.2 ± 1.4 µM. Besides, the “Expression of CyPA in RAW 264.7 cells vs untreated” value in the data set with cyclophilin A (CyPA) was “no significant changes”. Besides, in data set [6], the “IFN-γ level vs untreated infected cells” value is on record as “significant increases”, the “IL-4 level vs untreated infected cells” value was “significantly decreased”, the “IL-10 level vs untreated infected cells” value is “significantly decreased” and the “IL-12 level vs untreated infected cells” value is given as “significant increases”. Further, the “TNF-α level vs untreated infected cells” value in [6] is “significant increases”. The “Expression of LdCyPA in promastigotes vs untreated” value in data set [7] is listed as “no significant changes”. Also, the CC50 in data set [8] (setting [10]) was > 120 µM. Further, the CC50 in [8] (setting [11]) was > 120 µM. For the same compound, the CC50 in data set [8] (RAW 264.7, time not given in the sentence, read-out: CC50) was > 120 µM. Also, in [9], the “H2O2 production vs untreated infected cells” value is “significantly decreased” and the “NO production vs untreated infected cells” value is listed as “significantly decreased”.
